{"source": "PubChem BioAssay AID1963966", "about": "(Molecular Pharmacology Branch, DTP, NCI, 2024);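 note: compound exposure lasted seven days before viability was read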;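 for viability, T/C: percent of vehicle DMSO treated spheroid viability so 100% = untreated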", "test_system": "935938-334-R-J1-PDC spheroids with HUVEC/MSC, viability", "test": "Anticancer human tumor 935938-334-R-J1-PDC patient-derived small intestine adenocarcinoma cell line growth inhibition [PI3K]", "details": "for IC50: curve of first compound; for viability, T/C: stronger effect = lower value", "procedure,_shortened": "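Stroma-containing spheroids: tumor line, pooled-donor HUVEC, hMSC. Treatments: targeted agents with PI3K inhibitors. Dosing: clinically relevant, half-log spacing, 10 microM ceiling without known Cmax. Read-out: cell viability.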", "key": {"[1]": {"details": "second compound 0.0316 µM, first compound 0.0316 µM"}, "[2]": {"details": "second compound 0.0316 µM, first compound 0.1 µM"}, "[3]": {"details": "second compound 0.1 µM, first compound 0.0316 µM"}, "[4]": {"details": "second compound 0.1 µM, first compound 0.1 µM"}, "[5]": {"details": "second compound 0.316 µM, first compound 0.0316 µM"}, "[6]": {"details": "second compound 0.316 µM, first compound 0.1 µM"}, "[7]": {"details": "second compound 1 µM, first compound 0.0316 µM"}, "[8]": {"details": "second compound 1 µM, first compound 0.1 µM"}, "[9]": {"details": "second compound 3.16 µM, first compound 0.0316 µM"}, "[10]": {"details": "second compound 3.16 µM, first compound 0.1 µM"}, "[11]": {"details": "second compound 10 µM, first compound 0.0316 µM"}, "[12]": {"details": "second compound 10 µM, first compound 0.1 µM"}}, "data": [{"smiles": "CC(C)n1nc(-c2ccc3oc(N)nc3c2)c2c(N)ncnc21", "note": "+ CC(Nc1ncnc2nc[nH]c12)c1cc2cccc(Cl)c2c(=O)n1-c1ccccc1", "values": [{"measurement": "IC50", "setting": "second compound 0.0316 µM", "result": "> 0.1", "unit": "µM"}, {"measurement": "IC50", "setting": "second compound 0.1 µM", "result": "> 0.1", "unit": "µM"}, {"measurement": "IC50", "setting": "second compound 0.316 µM", "result": "> 0.1", "unit": "µM"}, {"measurement": "IC50", "setting": "second compound 1 µM", "result": "> 0.1", "unit": "µM"}, {"measurement": "IC50", "setting": "second compound 3.16 µM", "result": "> 0.1", "unit": "µM"}, {"measurement": "IC50", "setting": "second compound 10 µM", "result": 0.0716, "unit": "µM"}, {"measurement": "viability, T/C", "setting": "second compound 0.0316 µM, first compound 0.000316 µM", "result": 120, "unit": "%"}, {"measurement": "viability, T/C", "setting": "second compound 0.0316 µM, first compound 0.001 µM", "result": 104, "unit": "%"}, {"measurement": "viability, T/C", "setting": "second compound 0.0316 µM, first compound 0.00316 µM", "result": 99.8, "unit": "%"}, {"measurement": "viability, T/C", "setting": "second compound 0.0316 µM, first compound 0.01 µM", "result": 99.1, "unit": "%"}, {"measurement": "viability, T/C", "setting": "[1]", "result": 78.6, "unit": "%"}, {"measurement": "viability, T/C", "setting": "[2]", "result": 62.9, "unit": "%"}, {"measurement": "viability, T/C", "setting": "second compound 0.1 µM, first compound 0.000316 µM", "result": 97.3, "unit": "%"}, {"measurement": "viability, T/C", "setting": "second compound 0.1 µM, first compound 0.001 µM", "result": 85.9, "unit": "%"}, {"measurement": "viability, T/C", "setting": "second compound 0.1 µM, first compound 0.00316 µM", "result": 84.5, "unit": "%"}, {"measurement": "viability, T/C", "setting": "second compound 0.1 µM, first compound 0.01 µM", "result": 91.3, "unit": "%"}, {"measurement": "viability, T/C", "setting": "[3]", "result": 88.3, "unit": "%"}, {"measurement": "viability, T/C", "setting": "[4]", "result": 62, "unit": "%"}, {"measurement": "viability, T/C", "setting": "second compound 0.316 µM, first compound 0.000316 µM", "result": 78.2, "unit": "%"}, {"measurement": "viability, T/C", "setting": "second compound 0.316 µM, first compound 0.001 µM", "result": 85.6, "unit": "%"}, {"measurement": "viability, T/C", "setting": "second compound 0.316 µM, first compound 0.00316 µM", "result": 83.2, "unit": "%"}, {"measurement": "viability, T/C", "setting": "second compound 0.316 µM, first compound 0.01 µM", "result": 96.2, "unit": "%"}, {"measurement": "viability, T/C", "setting": "[5]", "result": 72.1, "unit": "%"}, {"measurement": "viability, T/C", "setting": "[6]", "result": 57.9, "unit": "%"}, {"measurement": "viability, T/C", "setting": "second compound 1 µM, first compound 0.000316 µM", "result": 111, "unit": "%"}, {"measurement": "viability, T/C", "setting": "second compound 1 µM, first compound 0.001 µM", "result": 91.7, "unit": "%"}, {"measurement": "viability, T/C", "setting": "second compound 1 µM, first compound 0.00316 µM", "result": 81.5, "unit": "%"}, {"measurement": "viability, T/C", "setting": "second compound 1 µM, first compound 0.01 µM", "result": 84, "unit": "%"}, {"measurement": "viability, T/C", "setting": "[7]", "result": 82.4, "unit": "%"}, {"measurement": "viability, T/C", "setting": "[8]", "result": 47.6, "unit": "%"}, {"measurement": "viability, T/C", "setting": "second compound 3.16 µM, first compound 0.000316 µM", "result": 87.5, "unit": "%"}, {"measurement": "viability, T/C", "setting": "second compound 3.16 µM, first compound 0.001 µM", "result": 74, "unit": "%"}, {"measurement": "viability, T/C", "setting": "second compound 3.16 µM, first compound 0.00316 µM", "result": 76.7, "unit": "%"}, {"measurement": "viability, T/C", "setting": "second compound 3.16 µM, first compound 0.01 µM", "result": 70.4, "unit": "%"}, {"measurement": "viability, T/C", "setting": "[9]", "result": 57.6, "unit": "%"}, {"measurement": "viability, T/C", "setting": "[10]", "result": 51.2, "unit": "%"}, {"measurement": "viability, T/C", "setting": "second compound 10 µM, first compound 0.000316 µM", "result": 72.7, "unit": "%"}, {"measurement": "viability, T/C", "setting": "second compound 10 µM, first compound 0.001 µM", "result": 94.1, "unit": "%"}, {"measurement": "viability, T/C", "setting": "second compound 10 µM, first compound 0.00316 µM", "result": 61.5, "unit": "%"}, {"measurement": "viability, T/C", "setting": "second compound 10 µM, first compound 0.01 µM", "result": 71.5, "unit": "%"}, {"measurement": "viability, T/C", "setting": "[11]", "result": 68.5, "unit": "%"}, {"measurement": "viability, T/C", "setting": "[12]", "result": 43, "unit": "%"}]}, {"smiles": "CC1(C)CCC(CN2CCN(c3ccc(C(=O)NS(=O)(=O)c4ccc(NCC5CCOCC5)c([N+](=O)[O-])c4)c(Oc4cnc5[nH]ccc5c4)c3)CC2)=C(c2ccc(Cl)cc2)C1", "note": "+ CC(Nc1ncnc2nc[nH]c12)c1cc2cccc(Cl)c2c(=O)n1-c1ccccc1", "values": [{"measurement": "IC50", "setting": "second compound 0.0316 µM", "result": 6.28, "unit": "µM"}, {"measurement": "IC50", "setting": "second compound 0.1 µM", "result": 6.66, "unit": "µM"}, {"measurement": "IC50", "setting": "second compound 0.316 µM", "result": 6.04, "unit": "µM"}, {"measurement": "IC50", "setting": "second compound 1 µM", "result": 6.82, "unit": "µM"}, {"measurement": "IC50", "setting": "second compound 3.16 µM", "result": 6.73, "unit": "µM"}, {"measurement": "IC50", "setting": "second compound 10 µM", "result": 5.59, "unit": "µM"}, {"measurement": "viability, T/C", "setting": "[1]", "result": 98.3, "unit": "%"}, {"measurement": "viability, T/C", "setting": "[2]", "result": 93.6, "unit": "%"}, {"measurement": "viability, T/C", "setting": "second compound 0.0316 µM, first compound 0.316 µM", "result": 90.8, "unit": "%"}, {"measurement": "viability, T/C", "setting": "second compound 0.0316 µM, first compound 1 µM", "result": 88.8, "unit": "%"}, {"measurement": "viability, T/C", "setting": "second compound 0.0316 µM, first compound 3.16 µM", "result": 89, "unit": "%"}, {"measurement": "viability, T/C", "setting": "second compound 0.0316 µM, first compound 10 µM", "result": 23.5, "unit": "%"}, {"measurement": "viability, T/C", "setting": "[3]", "result": 98.2, "unit": "%"}, {"measurement": "viability, T/C", "setting": "[4]", "result": 104, "unit": "%"}, {"measurement": "viability, T/C", "setting": "second compound 0.1 µM, first compound 0.316 µM", "result": 94.3, "unit": "%"}, {"measurement": "viability, T/C", "setting": "second compound 0.1 µM, first compound 1 µM", "result": 105, "unit": "%"}, {"measurement": "viability, T/C", "setting": "second compound 0.1 µM, first compound 3.16 µM", "result": 95.1, "unit": "%"}, {"measurement": "viability, T/C", "setting": "second compound 0.1 µM, first compound 10 µM", "result": 25.2, "unit": "%"}, {"measurement": "viability, T/C", "setting": "[5]", "result": 104, "unit": "%"}, {"measurement": "viability, T/C", "setting": "[6]", "result": 98.9, "unit": "%"}, {"measurement": "viability, T/C", "setting": "second compound 0.316 µM, first compound 0.316 µM", "result": 105, "unit": "%"}, {"measurement": "viability, T/C", "setting": "second compound 0.316 µM, first compound 1 µM", "result": 93.8, "unit": "%"}, {"measurement": "viability, T/C", "setting": "second compound 0.316 µM, first compound 3.16 µM", "result": 86.7, "unit": "%"}, {"measurement": "viability, T/C", "setting": "second compound 0.316 µM, first compound 10 µM", "result": 22.3, "unit": "%"}, {"measurement": "viability, T/C", "setting": "[7]", "result": 80.7, "unit": "%"}, {"measurement": "viability, T/C", "setting": "[8]", "result": 94.1, "unit": "%"}, {"measurement": "viability, T/C", "setting": "second compound 1 µM, first compound 0.316 µM", "result": 69.1, "unit": "%"}, {"measurement": "viability, T/C", "setting": "second compound 1 µM, first compound 1 µM", "result": 102, "unit": "%"}, {"measurement": "viability, T/C", "setting": "second compound 1 µM, first compound 3.16 µM", "result": 92.7, "unit": "%"}, {"measurement": "viability, T/C", "setting": "second compound 1 µM, first compound 10 µM", "result": 31.2, "unit": "%"}, {"measurement": "viability, T/C", "setting": "[9]", "result": 92.6, "unit": "%"}, {"measurement": "viability, T/C", "setting": "[10]", "result": 89.2, "unit": "%"}, {"measurement": "viability, T/C", "setting": "second compound 3.16 µM, first compound 0.316 µM", "result": 87.1, "unit": "%"}, {"measurement": "viability, T/C", "setting": "second compound 3.16 µM, first compound 1 µM", "result": 93.2, "unit": "%"}, {"measurement": "viability, T/C", "setting": "second compound 3.16 µM, first compound 3.16 µM", "result": 92.5, "unit": "%"}, {"measurement": "viability, T/C", "setting": "second compound 3.16 µM, first compound 10 µM", "result": 28.4, "unit": "%"}, {"measurement": "viability, T/C", "setting": "[11]", "result": 81.7, "unit": "%"}, {"measurement": "viability, T/C", "setting": "[12]", "result": 61.5, "unit": "%"}, {"measurement": "viability, T/C", "setting": "second compound 10 µM, first compound 0.316 µM", "result": 91.2, "unit": "%"}, {"measurement": "viability, T/C", "setting": "second compound 10 µM, first compound 1 µM", "result": 86.5, "unit": "%"}, {"measurement": "viability, T/C", "setting": "second compound 10 µM, first compound 3.16 µM", "result": 73.4, "unit": "%"}, {"measurement": "viability, T/C", "setting": "second compound 10 µM, first compound 10 µM", "result": 26.1, "unit": "%"}]}]}
